As usually defined, the IC50 is the midpoint of a concentration-inhibition curve. A higher IC50 goes with a need for much substance. A word on the inhibition: it is the change of the read-out against control, counted positive when it falls.

Molecules are shown by their SMILES.

The species entered for test [1] is Homo sapiens. Kind of test: (§1) Compound was evaluated for inhibition of Interleukin (IL1-beta) release in human monocytes. The test is classed as functional.
The species named for test [2] is Homo sapiens. The test can be described thus: Compound was evaluated for percentage inhibition of Interleukin (IL1-beta) release in human monocytes at a concentration of 3000 nM. The test is classed as functional.
For test [3], the species on record is Homo sapiens. The test can be described thus: Compound was evaluated for percentage inhibition of Interleukin (IL1-beta) release in human monocytes at a concentration of 1000 nM. The test is classed as functional.
Test [4] in a line: as §1. Format: functional, cell-based.

`COC(=O)[C@]1(C)CC[C@]2(C)CC[C@]3(C)C4=CCc5c(cc(OC(C)=O)c(OC(C)=O)c5C)[C@]4(C)CC[C@@]3(C)[C@@H]2C1` [PRISTIMEROL DIACETATE] had a half-inhibitory concentration (IC50) in test [1] of 80 nM. This counts as double-digit nanomolar.

Compound `CC(=O)OC1=C[C@@]2(C)C(=CC1=O)C=C[C@H]1[C@@H]3CC[C@H](OC(C)=O)[C@@]3(C)CC[C@@H]12` came in with a half-maximal inhibitory concentration (IC50) in test [1] of 3000 nM.

Turning to `C[C@]12CC[C@H]3[C@@H](CCC4=CC(=O)C(O)=C[C@@]43C)[C@@H]1CC[C@@H]2O`, the inhibition at 3 µM in test [2] came to 36%.

For the compound `C[C@]12CCc3c(ccc4cc(O)ccc34)[C@@H]1CCC2=O` [EQUILENIN], the inhibition at 1 µM in test [3] is 27%.

Turning to `C[C@]12CC[C@@H]3c4ccc(O)cc4C=C[C@H]3[C@@H]1CCC2=O`, in test [3], the inhibition at 1 µM came out at 1%.

The compound `CC1=C(O)C(=O)C=C2C1=CC=C1[C@@]2(C)CC[C@@]2(C)[C@@H]3C[C@](C)(C(=O)O)CC[C@]3(C)CC[C@]12C` [CELASTROL] showed an IC50 in test [4] of 40 nM.

`C[C@]12CC[C@H]3[C@@H](C=CC4=CC(=O)C(O)=C[C@@]43C)[C@@H]1CC[C@@H]2O` yielded a concentration for half-maximal inhibition (IC50) in test [1] of 3000 nM.

As to `CC(=O)Oc1cc2c(c(C)c1OC(C)=O)[C@H]1CC[C@]3(C)[C@@H](OC(C)=O)CC[C@H]3[C@@H]1C=C2`, in test [1], it took 150 nM to reach half-maximal inhibition (IC50).

As for `C[C@]12CC[C@H]3C(=CCc4cc(O)ccc43)[C@@H]1CCC2=O` [EQUILIN], the inhibition at 1 µM in test [3] is -11%.

(Values after ChEMBL document CHEMBL1130623, “Novel cytokine release inhibitors. Part II: Steroids” (Bioorg Med Chem Lett, 1998).)
